Values quoted from earlier work, collected in patent US6017399A, “Method for controlling and removing solid deposits from a surface of a component of a steam generating system” (priority 1998, dated 2000).
Like-named read-outs stand apart in the source and are kept apart here.

NCCCCCN [1,5 Diaminopentane]
pKa (25° C., Table 4): 10.915

C1CCC2=NCCCN2CC1 [1,5-Diazabicyclo (5,4,0) Unde-5-ane]
pKa (25° C., Table 4): 13.40

NCCCCCCN [1,6 Diaminohexane]
pKa (25° C., Table 4): 10.93

NCCCCCCCCN [1,8 Diaminooctane]
pKa (25° C., Table 4): 10.937

CCCCNCCCC [Di-N-Butylamine]
pKa (25° C., Table 4): 11.31

CC(C)CNCC(C)C [Diisobutylamine]
pKa (25° C., Table 4): 10.82

CNC [Dimethylamine]
pKa (25° C.): about 10.61 | pKa (25° C., Table 4): 10.61 | pKa (about 250° C.): about 6.50

CCCCN [Mono-N-Butylamine]
pKa (25° C., Table 4): 10.61

CN [Monomethylamine]
pKa (25° C., Table 4): 10.62

CCNC1CCCCC1 [N-Ethylcyclohexylamine]
pKa (25° C., Table 4): 12.00

CCCN(CCC)CCC [Tri-N-Propylamine]
pKa (25° C., Table 4): 10.65

CN(C)C [Trimethylamine]
pKa (25° C., Table 4): 10.71

Dimethylamino-propylamine
pKa (25° C., Table 4): 11.70
